# Reference: ChEMBL document CHEMBL6103545, “Discovery of GS-2278, a Potent and Selective LPAR1 Antagonist for the Treatment of Idiopathic Pulmonary Fibrosis” (J Med Chem, 2025)
# How the values were obtained:
# [1] = target: T1, Lysophosphatidic acid receptor 1 (Homo sapiens, UniProt Q92633); assay: Antagonist activity at LPA1 receptor in serum starved human TWNT-4 cells assessed as nuclear translocation pre-incubated for 1 hr followed by LPA stimulation and measured after 30 min by MRTF-A assay; type: cell-based
# [2] = Lipophilicity, logD of compound at pH 7.4; type: physicochemical; settings: buffer
# [3] = Plasma protein binding in human assessed as unbound fraction incubated for 24 hrs by equilibrium dialysis based Rapidfire-QToF mass spectrometric analysis; type: ADME, cell-free
# [4] = Apparent permeability across apical to basolateral side in cMDR1 knockout MDCK-II cells incubated upto 240 mins by RF-QToF analysis; type: ADME, cell-based, Canis lupus familiaris; settings: dog
# [5] = Metabolic stability in male Sprague-Dawley rat liver microsomes assessed as intrinsic clearance at 1 uM by LC/MS/MS analysis; type: ADME, Microsome; settings: read-out: CLH (converted)
# [6] = Metabolic stability in Beagle dog liver microsomes assessed as intrinsic clearance at 1 uM by LC/MS/MS analysis; type: ADME, Canis lupus familiaris, Microsome; settings: read-out: CLH (converted)
# [7] = Metabolic stability in cynomolgus monkey liver microsomes assessed as intrinsic clearance at 1 uM by LC/MS/MS analysis; type: ADME, Macaca fascicularis, Microsome; settings: read-out: CLH (converted)
# [8] = Volume of distribution in male Sprague-Dawley rat at 1 mg/kg, iv s measured after 24 hrs by LC/MS/MS analysis; type: ADME, organism-based; settings: in vivo
# [9] = Volume of distribution in Beagle dog at 1 mg/kg, iv measured after 24 hrs by LC/MS/MS analysis; type: ADME, organism-based, Canis lupus familiaris; settings: in vivo
# [10] = Volume of distribution in cynomolgus monkey at 1 mg/kg, iv measured after 24 hrs by LC/MS/MS analysis; type: ADME, organism-based, Macaca fascicularis; settings: in vivo
# [11] = AUC (0 to 24 hrs) in male Sprague-Dawley rat at 5 mg/kg, po measured after 24 hrs by LC/MS/MS analysis; type: ADME, organism-based; settings: in vivo
# [12] = AUC (0 to 24 hrs) in Beagle dog at 5 mg/kg, po measured after 24 hrs by LC/MS/MS analysis; type: ADME, organism-based, Canis lupus familiaris; settings: in vivo
# [13] = AUC (0 to 24 hrs) in cynomolgus monkey at 5 mg/kg, po measured after 24 hrs by LC/MS/MS analysis; type: ADME, organism-based, Macaca fascicularis; settings: in vivo
# [14] = Half-life in male Sprague-Dawley rat at 1 mg/kg, iv measured after 24 hrs by LC/MS/MS analysis; type: ADME, organism-based; settings: in vivo
# [15] = Half-life in Beagle dog at 5 mg/kg, po measured after 24 hrs by LC/MS/MS analysis; type: ADME, organism-based, Canis lupus familiaris; settings: in vivo
# [16] = Half-life in cynomolgus monkey at 5 mg/kg, po measured after 24 hrs by LC/MS/MS analysis; type: ADME, organism-based, Macaca fascicularis; settings: in vivo
# [17] = Oral bioavailability in male Sprague-Dawley rat at 5 mg/kg measured after 24 hrs by LC/MS/MS analysis; type: ADME, organism-based; settings: in vivo
# [18] = Oral bioavailability in Beagle dog at 5 mg/kg measured after 24 hrs by LC/MS/MS analysis; type: ADME, organism-based, Canis lupus familiaris; settings: in vivo
# [19] = Oral bioavailability in cynomolgus monkey at 5 mg/kg measured after 24 hrs by LC/MS/MS analysis; type: ADME, organism-based, Macaca fascicularis; settings: in vivo
# [20] = Dissociation constant, pKa of compound at 100 uM by capillary electrophoresis; type: physicochemical
# [21] = Drug excretion in bile-duct cannulated rat urine at 1 mg/kg, iv; type: ADME, organism-based; settings: read-out: Drug excretion
# [22] = target: T1, Lysophosphatidic acid receptor 1; assay: […] at LPA1 receptor in human TWNT-4 cells assessed as nuclear translocation pre-incubated for 1 hr followed by 30 min incubation by MRTF-A assay; type: functional, cell-based
# [23] = target: T1, Lysophosphatidic acid receptor 1; assay: […] at LPA1 receptor in human TWNT-4 cells pre-incubated for 1 hr followed by 30 mins incubation in presence of 4% human serum albumin by MRTF-A assay; type: functional, cell-based
# T1 sequence (Q92633 whole entry): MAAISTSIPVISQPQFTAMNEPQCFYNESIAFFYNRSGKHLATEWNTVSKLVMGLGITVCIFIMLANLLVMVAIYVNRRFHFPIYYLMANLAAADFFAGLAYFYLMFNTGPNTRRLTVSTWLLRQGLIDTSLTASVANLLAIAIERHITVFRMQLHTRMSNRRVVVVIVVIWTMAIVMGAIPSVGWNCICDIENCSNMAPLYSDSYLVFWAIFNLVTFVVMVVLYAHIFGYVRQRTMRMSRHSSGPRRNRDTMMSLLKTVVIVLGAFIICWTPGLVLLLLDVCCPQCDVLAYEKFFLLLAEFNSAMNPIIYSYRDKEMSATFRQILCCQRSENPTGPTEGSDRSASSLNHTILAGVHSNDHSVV
SMILES,EC50 [1],logD [2],fraction unbound at 24 h [3],Papp A→B at 4 h [4],further results
Cc1nc(-c2nnn(C)c2NC(=O)O[C@H](C)c2cc(F)cnc2Cl)ccc1NS(C)(=O)=O,83 nM,1.8,0.13,13 ×10⁻⁶ cm/s,
CC(=O)N(C)c1ccc(-c2nnn(C)c2NC(=O)O[C@H](C)c2ccccc2Cl)cc1,7530 nM,2.2,,,
C[C@@H](OC(=O)Nc1c(-c2ccc(NS(C)(=O)=O)cc2)nnn1C)c1ccccc1Cl,12 nM,2.4,,,
Cc1nc(-c2nnn(C)c2NC(=O)O[C@@H](c2ccccc2)C(F)(F)F)ccc1NS(C)(=O)=O,45 nM,2.5,0.2,18 ×10⁻⁶ cm/s,
C[C@@H](OC(=O)Nc1c(-c2ccc(NS(C)(=O)=O)cn2)nnn1C)c1cc(F)cnc1F,35 nM,1.5,0.31,3.2 ×10⁻⁶ cm/s,CLint scaled at 1 µM [5]: 18.5 mL/min/kg; CLint scaled at 1 µM [6]: 8.67 mL/min/kg; CLint scaled at 1 µM [7]: 7.17 mL/min/kg; Vd [8]: 1 L/kg; Vd [9]: 1 L/kg; Vd [10]: 0.4 L/kg; AUC(0-t) at 24 h [11]: 5.4 µM·h; AUC(0-t) at 24 h [12]: 25 µM·h; AUC(0-t) at 24 h [13]: 13 µM·h; half-life [14]: 3 h; half-life [15]: 3.6 h; half-life [16]: 3.8 h; bioavailability [17]: 55%; bioavailability [18]: 100%; bioavailability [19]: 45%
Cc1nc(-c2nnn(C)c2NC(=O)O[C@H](C)c2cccnc2F)ccc1NS(C)(=O)=O,1370 nM,1.4,0.38,5.6 ×10⁻⁶ cm/s,
C[C@@H](OC(=O)Nc1c(-c2ccc(NS(C)(=O)=O)cn2)nnn1C)c1cc(F)cnc1Cl,,1.7,0.18,5.5 ×10⁻⁶ cm/s,
C[C@@H](OC(=O)Nc1c(-c2ccc(NC(=O)c3ccnc(C(F)(F)F)c3)cn2)nnn1C)c1cc(F)cnc1F,,2.7,0.14,4.6 ×10⁻⁶ cm/s,
C[C@@H](OC(=O)Nc1c(-c2ccc(NC(=O)C(F)(F)F)cc2)nnn1C)c1ccccc1Cl,20 nM,3.3,,,
Cc1nc(-c2nnn(C)c2NC(=O)O[C@H](C)c2ccccc2Cl)ccc1NS(C)(=O)=O,11 nM,2.5,0.13,27 ×10⁻⁶ cm/s,
C[C@@H](OC(=O)Nc1c(-c2ccc(N)cc2)nnn1C)c1ccccc1Cl,417 nM,2.3,,,
Cc1nc(-c2nnn(C)c2NC(=O)O[C@H](C)c2cccnc2Cl)ccc1NS(C)(=O)=O,109 nM,1.5,0.17,5.9 ×10⁻⁶ cm/s,pKa at 100 µM [20]: 7.1; dose excreted [21]: 50%
C[C@@H](OC(=O)Nc1c(-c2ccc(NS(=O)(=O)CC#N)cc2)nnn1C)c1ccccc1Cl,32 nM,2.2,,,
C[C@@H](OC(=O)Nc1c(-c2ccc(N(C)S(C)(=O)=O)cc2)nnn1C)c1ccccc1Cl,890 nM,2.7,,,
C[C@@H](OC(=O)Nc1c(-c2ccc(NC(=O)C34CC(F)(C3)C4)cn2)nnn1C)c1cc(F)cnc1F,77 nM,2.3,0.33,11 ×10⁻⁶ cm/s,
Cn1nnc(-c2ccc(NS(C)(=O)=O)cn2)c1NC(=O)O[C@H](CF)c1ccccc1,81 nM,1.6,0.27,5 ×10⁻⁶ cm/s,
C[C@@H](OC(=O)Nc1c(-c2ccc(NC(=O)C3(C#N)CC3)cn2)nnn1C)c1cc(F)cnc1F,37 nM,1.9,0.46,21 ×10⁻⁶ cm/s,
C[C@@H](OC(=O)Nc1c(-c2ccccc2)nnn1C)c1ccccc1Cl,,3.2,,,
C[C@@H](OC(=O)Nc1c(-c2ccc(NS(C)(=O)=O)cn2)nnn1C)c1cccnc1Cl,108 nM,1.3,0.26,2.8 ×10⁻⁶ cm/s,
Cc1nc(-c2nnn(C)c2NC(=O)O[C@H](CF)c2ccccc2)ccc1NS(C)(=O)=O,31 nM,1.9,0.29,17 ×10⁻⁶ cm/s,
C[C@@H](OC(=O)Nc1c(-c2ccc(O)cc2)nnn1C)c1ccccc1Cl,237 nM,2.5,,,
C[C@@H](OC(=O)Nc1c(-c2ccc(NC(=O)C3CC(F)(F)C3)cn2)nnn1C)c1cc(F)cnc1F,21 nM,2.4,0.21,15 ×10⁻⁶ cm/s,

SMILES,EC50 [1],logD [2],fraction unbound at 24 h [3],Papp A→B at 4 h [4],further results
CNS(=O)(=O)c1ccc(-c2nnn(C)c2NC(=O)O[C@H](C)c2ccccc2Cl)cc1,893 nM,2.6,,,
C[C@@H](OC(=O)Nc1c(-c2ccc(NS(=O)(=O)C(C)(C)C)cc2)nnn1C)c1ccccc1Cl,> 10000 nM,3,,,
Cc1nc(-c2nnn(C)c2NC(=O)O[C@H](C)c2cc(F)ccc2F)ccc1NS(C)(=O)=O,953 nM,2.4,0.19,20 ×10⁻⁶ cm/s,
CC(=O)Nc1ccc(-c2nnn(C)c2NC(=O)O[C@H](C)c2cc(F)cnc2F)nc1,1350 nM,1.3,0.36,7.7 ×10⁻⁶ cm/s,
C[C@@H](OC(=O)Nc1c(-c2ccc(NC(=O)c3ccc(C(F)(F)F)nc3)cn2)nnn1C)c1cc(F)cnc1F,25 nM,2.7,0.15,14 ×10⁻⁶ cm/s,
C[C@@H](OC(=O)Nc1c(-c2ccc(S(=O)(=O)NC3CC3)cc2)nnn1C)c1ccccc1Cl,,2.9,,,
C[C@@H](OC(=O)Nc1c(-c2ccc(N)cn2)nnn1C)c1cc(F)cnc1F.Cl,7920 nM,1.3,0.71,15 ×10⁻⁶ cm/s,
C[C@@H](OC(=O)Nc1c(-c2ccc(NS(C)(=O)=O)cn2)nnn1C)c1ccccc1,,1.9,0.27,13 ×10⁻⁶ cm/s,
Cc1nc(-c2nnn(C)c2NC(=O)O[C@H](C)c2cccc(F)c2)ccc1NS(C)(=O)=O,,2.2,0.22,23 ×10⁻⁶ cm/s,
Cc1nc(-c2nnn(C)c2NC(=O)O[C@H](C)c2cc(F)cnc2F)ccc1NS(C)(=O)=O,124 nM,1.7,0.15,8.8 ×10⁻⁶ cm/s,
C[C@@H](OC(=O)Nc1c(-c2ccc(S(N)(=O)=O)cc2)nnn1C)c1ccccc1Cl,,2.2,,,
C[C@@H](OC(=O)Nc1c(-c2ccc(NS(C)(=O)=O)cn2)nnn1C)c1cc(F)ccc1F,122 nM,2.1,0.18,16 ×10⁻⁶ cm/s,
C[C@@H](OC(=O)Nc1c(-c2ccc(NC(=O)C34CC(C#N)(C3)C4)cn2)nnn1C)c1cc(F)cnc1F,51 nM,2,0.31,8.3 ×10⁻⁶ cm/s,
C[C@@H](OC(=O)Nc1c(-c2ccc(NS(C)(=O)=O)cn2)nnn1C)c1ccccc1Cl,30 nM,2.2,,19 ×10⁻⁶ cm/s,
C[C@@H](OC(=O)Nc1c(-c2ccc(NS(C)(=O)=O)cn2)nnn1C)c1cccnc1F,186 nM,1.1,0.3,4.4 ×10⁻⁶ cm/s,
C[C@@H](OC(=O)Nc1c(-c2ccc(NC(=O)[C@@H]3CC3(F)F)cn2)nnn1C)c1cc(F)cnc1F,576 nM,2.2,0.35,12 ×10⁻⁶ cm/s,
Cc1ccc(C(=O)Nc2ccc(-c3nnn(C)c3NC(=O)O[C@H](C)c3cc(F)cnc3F)nc2)cn1,109 nM,1.7,0.32,7.2 ×10⁻⁶ cm/s,
Cc1nc(-c2nnn(C)c2NC(=O)O[C@H](C)c2ccccc2)ccc1NS(C)(=O)=O,,2.2,0.2,27 ×10⁻⁶ cm/s,
C[C@@H](OC(=O)Nc1c(-c2ccc(NC(=O)C3(C(F)F)CC3)cn2)nnn1C)c1cc(F)cnc1F,5250 nM,2.4,0.56,40 ×10⁻⁶ cm/s,
C[C@@H](OC(=O)Nc1c(-c2ccc(NS(C)(=O)=O)cn2)nnn1C)c1cccc(F)c1,522 nM,1.9,0.25,15 ×10⁻⁶ cm/s,
CCCCCCCC/C=C\CCCCCCCC(=O)OC[C@@H](O)COP(=O)(O)O [LYSOPHOSPHATIDIC ACID],,,,,EC50 [22]: 47.3 nM; EC50 [23]: 306 nM
